# T1: endogenous eIF2 of mouse reticulocyte lysates (alpha subunit as substrate), Q6ZWX6
# T1 chain: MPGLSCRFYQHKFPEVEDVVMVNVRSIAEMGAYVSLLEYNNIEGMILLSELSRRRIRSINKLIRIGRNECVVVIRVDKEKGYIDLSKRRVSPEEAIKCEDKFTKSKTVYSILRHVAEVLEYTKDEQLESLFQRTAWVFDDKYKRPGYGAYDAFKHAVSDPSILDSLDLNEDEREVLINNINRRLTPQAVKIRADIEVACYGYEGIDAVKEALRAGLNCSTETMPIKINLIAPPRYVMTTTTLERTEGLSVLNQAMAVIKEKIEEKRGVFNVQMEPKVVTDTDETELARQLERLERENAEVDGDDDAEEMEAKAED
# B1: mouse HRI protein (heme-regulated eIF2 alpha kinase) in reticulocyte lysates (protein)
# chain: MLGGSSVDGERDTDDDAAGAVAAPPAIDFPAEVSDPKYDESDVPAELQVLKEPLQQPTFPFLVANQLLLVSLLEHLSHVHEPNPLHSKQVFKLLCQTFIKMGLLSSFTCSDEFSSLRLHHNRAITHLMRSAKERVRQDPCQDNSYMQKIRSREIAFEAQTSRYLNEFEELAILGKGGYGRVYKVRNKLDGQHYAIKKILIKSATKTDCMKVLREVKVLAGLQHPNIVGYHTAWIEHVHVVQPQDRVPIQLPSLEVLSEQEGDRDQGGVKDNESSSSIVFAELTPEKEKPFGESEVKNENNNLVSYTANLVVRNSSESESSIELQEDGLTDLSVRPVVRHQLPLGHSSELEGNFTSTDESSEGNLNLLGQTEVRYHLMLHIQMQLCELSLWDWITERNKRSREYVDEAACPYVMASVATKIFQELVEGVFYIHNMGIVHRDLKPRNIFLHGPDQQVKIGDFGLACADIIQNADWTNRNGKGTRTHTSRVGTCLYASPEQLEGSQYDAKSDMYSLGVILLELFQPFGTEMERATVLTGVRTGRIPESLSKRCPVQAKYIQLLTGRNVSQRPSALQLLQSELFQTTGNVNLTLQMKIIEQEKEIEELKKQLSLLSQDRGLKR
# B2: 90 kDa polypeptide expressed from rabbit HRI cDNA (heme-regulated eIF-2 alpha kinase), in vitro translation product (protein)
# chain: MLGGSAGTRGGEAEGDGAGAVGAVAPPPAIDFPAEVSDPKYDESDVPAELQVLKEPLQQPAFPFAVANQLLLVSLLEHLSHVHEPNPLRSRQVFKLLCQTFIKMGLLSSFTCSDEFSSLRLHHNRAITHLMRSARERVRQDPCADNSHIQKIRSREVALEAQTSRYLNEFEELSILGKGGYGRVYKVRNKLDGQYYAIKKILIKGATKTDCMKVLREVKVLAGLQHPNIVGYHTAWIEHVHVHVQADRVPIQLPSLEVLSDQEEDRDQYGVKNDASSSSSIIFAEFSPEKEKSSDECAVESQNNKLVNYTTNLVVRDTGEFESSTERQENGSIVERQLLFGHNSDVEEDFTSAEESSEEDLSALRHTEVQYHLMLHIQMQLCELSLWDWIAERNRRSRECVDESACPYVMVSVATKIFQELVEGVFYIHNMGIVHRDLKPRNIFLHGPDQQVKIGDFGLACADIIQKNAARTSRNGERAPTHTSRVGTCLYASPEQLEGSEYDAKSDMYSVGVILLELFQPFGTEMERAEVLTGVRAGRIPDSLSKRCPAQAKYVQLLTRRNASQRPSALQLLQSELFQNSAHVNLTLQMKIIEQEREIEELKKQLSLLSQARGVRSDRRDGELPA
# B3: purified reticulocyte HRI (protein)
# chain: B2 chain
# Legend:
# [1] = tested on: HRI−/− reticulocytes; test: [35S]-methionine incorporation / protein (globin) synthesis in isolated intact reticulocytes, HRI−/−; assay type: cell-based, mouse
# Description: (§1) Mice were injected with phenylhydrazine at 40 mg/kg on days 0, 1 and 3 to induce hemolysis, and the subsequent erythropoiesis and release of reticulocytes into the blood stream. Blood samples were collected by heart puncture on day 7 when the reticulocyte counts were 85-95%. Reticulocytes were washed twice with ice-cold phosphate-buffered saline supplemented with 5 mM glucose. For protein synthesis assays, reticulocytes were resuspended in DMEM (2×10^8 cells/ml) with 1/10 concentration of methionine plus 2% dialyzed fetal bovine serum and preincubated for 30 min at 37_C for recovery. […] Incorporation of the [^35S]-methionine in the globin chains and other proteins was analyzed by 15% SDS-PAGE, and subsequent transfer to nitrocellulose membranes. Protein synthesis in reticulocytes was quantitated by scintillation counting of the nitrocellulose strips containing globin chains. Phosphorylation of HRI and eIF2a in isolated reticulocytes were analyzed by western blot analysis following 7.5% and 12% SDS-PAGE respectively. […]
# (§2) HRI−/− mice are viable and fertile without gross morphological abnormalities. […] The IF2Alpha kinase activity of HRI in reticulocyte lysates was determined using in vitro protein kinase assays. The extent of the eIF2a phosphorylation was determined by western-blot analysis using antibody specific to the phosphorylated eIF2a. […]
# [2] = tested on: HRI +/+ reticulocytes; test: [35S]-methionine incorporation / protein (globin) synthesis in isolated intact reticulocytes, HRI +/+; assay type: cell-based, mouse
# Description: as §1, §2
# [3] = tested on: Wt mice; test: Survival in phenylhydrazine-induced hemolysis, Wt mice; conditions: Wt mice with iron-deficiency, after two injections, 50 mg/Kg
# Description: (§3) States of iron deficiency have been and remain very common in humans. Thus, exposure to situations that render RBCs more fragile may be often concurrent with iron-deficiency, such as in thalassemias, sickle cell disease, malaria and other infections, extreme climatic conditions, ingestion of natural toxins, heavy metals or drugs. […] Both Wt and HRI−/− mice were injected with phenylhydrazine at the dosages as indicated at Days 0, 1 and 3. The mice were observed daily. […] Six mice of each genotype were used for each dosage. […] The standard phenylhydrazine regime employs three injections of phenylhydrazine on days 0, 1 and 3.
# [4] = tested on: HRI−/− mice; test: Survival in phenylhydrazine-induced hemolysis, HRI−/− mice; conditions: iron-deficient HRI−/− mice, after two injections, 50 mg/Kg
# Description: as §3
# [5] = biological target: T1, endogenous eIF2 of mouse reticulocyte …
# [6] = biological target: purified rabbit reticulocyte eIF-2 (alpha subunit as substrate), P83268
# [7] = biological target: purified wheat germ eIF-2Alpha
# Sequence of purified rabbit reticulocyte eIF-2 (alpha subunit as substrate), P83268 (P83268 whole entry, looked up, tested part not stated): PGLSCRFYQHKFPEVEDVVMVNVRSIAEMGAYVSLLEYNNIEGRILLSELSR
molecule,measurement,setting,value
hemin,"Protein synthesis, effect of addition of hemin",[1]; hemin added,not affected
same,Incorporation of [35S]-methionine into globins,"[2]; +/+ reticulocytes, pre-treatment with 40_M hemin for 30 min prior to [35S]-methionine",208 % of control
NNc1ccccc1 [phenylhydrazine],Survival,[3],~100%
same,Mice died,[4],90%
C[C@@H]1C[C@@H]([C@H](O)CC2CC(=O)NC(=O)C2)C(=O)[C@@H](C)C1 [cycloheximide],"Protein synthesis, inhibition",[1]; cycloheximide (2 ìM per method),inhibited equally well
same,"Protein synthesis, inhibition","[2]; Wt reticulocytes, cycloheximide (2 ìM per method)",inhibited equally well
B1,in vitro eIF2 Alpha phosphorylation in reticulocyte lysates with endogenous eIF2 as substrate,[5],In vitro eIF2 Alpha phosphorylation occurred in reticulocyte lysates from +/+ mice ... little eIF2 phosphorylation was detected in the reticulocyte lysates of HRI-/- mice
B2,"eIF-2Alpha kinase activity (32P protein kinase assay, SDS-gel electrophoresis)",[6],translational products of HRI 2A and HRI 2B mRNAs have enhanced eIF-2Alpha kinase activity as compared to the control in the absence of added mRNA
B3,phosphorylation of eIF-2Alpha (protein kinase assay),[7],the purified reticulocyte HRI phosphorylates purified wheat germ eIF-2Alpha very inefficiently

# — patent US20030131363A1, “Heme-regulated eukaryotic initiation factor 2 alpha kinase knockout mice and methods for use” (Massachusetts Institute of Technology, priority 2001, published 2003)
